Experimental data from the NIST ThermoML archive (doi:10.1021/acs.jced.7b00613).
± gives the expanded uncertainty stated by the source.

Tests used:
[1] = refractive index (Na D-line) (dimensionless); conditions: 293.15 K; 101.33 kPa; Liquid; Standard Abbe refractometry
[2] = Liquid; for mass density: 293.15 K, 101.33 kPa, Vibrating tube method; for vapor or sublimation pressure: 278.15 K, Closed cell (Static) method

CC(C)CC(C)(C)C [2,2,4-trimethylpentane]
refractive index [1]: 1.391 ± 0.001 | mass density [2]: 692 ± 1 kg/m3

O=C=O [carbon dioxide]
vapor or sublimation pressure [2]: 3962 ± 18 kPa

CC [ethane]
vapor or sublimation pressure [2]: 2699 ± 14 kPa

CCCCCC [hexane]
refractive index [1]: 1.375 ± 0.001 | mass density [2]: 660 ± 1 kg/m3

CCCCCCCC [octane]
refractive index [1]: 1.396 ± 0.001 | mass density [2]: 703 ± 1 kg/m3
